The melting point is the temperature, or range, at which the solid turns liquid. In turn, `CC(C)CN(C[C@@H](O)[C@H](Cc1ccccc1)NC(=O)[C@@H](NC(=O)CNC(=O)C(C)C)C(C)(C)C)S(=O)(=O)c1ccc2c(c1)OCO2` (stereo in doubt) displayed a melting point of 205 to 206 °C.

These data come from US6562848B1, “Bis-amino acid sulfonamides as HIV protease inhibitors” (Bristol-Myers Squibb Company, priority 2001, dated 2003).
